{"source": "patent US20140121185A1", "about": "(Medicon Pharmaceuticals, Inc., priority 2012, published 2014)", "key": {"[1]": {"test_system": "liver microsomes"}, "[2]": {"assay": "3-week oral toxicity in BALB/c mice", "type": "in vivo", "procedure": "The toxicity of P-FTS 35 in mice was further examined. Groups of 6 week-old female BALB/c mice (5 mice/group) were given by oral gavage once a day for 3 weeks P-FTS 35: 0, 75, 150, 250 and 350 mg/kg. […] The (sub-chronic) maximum tolerated dose of P-FTS 35 (3-wk period of observation) was determined to be at least 350 mg/kg/d."}, "[3]": {"test_system": "MIA PaCa-2", "assay": "Pancreatic cancer cell growth, 24 h", "type": "cell-based, human", "conditions": "MIA PaCa-2, escalating concentrations", "procedure": "(§1) Cell growth was determined in the human pancreatic cancer cell lines AsPC-1, CFPAC-1, Capan-2, Panc-1 and MIA PaCa-2 after treatment with escalating concentrations of P-FTS 35 for 24 h."}, "[4]": {"test_system": "AsPC-1", "assay": "Pancreatic cancer cell growth, 24 h", "type": "cell-based, human", "conditions": "AsPC-1, escalating concentrations", "procedure": "as §1"}, "[5]": {"test_system": "Capan-2", "assay": "Pancreatic cancer cell growth, 24 h", "type": "cell-based, human", "conditions": "Capan-2, escalating concentrations", "procedure": "as §1"}, "[6]": {"test_system": "CFPAC-1", "assay": "Pancreatic cancer cell growth, 24 h", "type": "cell-based, human", "conditions": "CFPAC-1, escalating concentrations", "procedure": "as §1"}, "[7]": {"test_system": "Panc-1", "assay": "Pancreatic cancer cell growth, 24 h", "type": "cell-based, human", "conditions": "Panc-1, escalating concentrations", "procedure": "as §1"}, "[8]": {"test_system": "p-ERK and p-AKT", "assay": "Immunoblotting of MIA PaCa-2 xenografts", "type": "in vivo, nude mice", "procedure": "B: Immunoblots of p-ERK, ERK, p-AKT and AKT in whole cell protein extracts from MIA PaCa-2 xenografts. Loading control: β-actin.\n(§2) The inhibition of Ras by P-FTS 35 was further confirmed in vivo. The Ras-GTP pull down assay was used to test the capacity of P-FTS 35 to inhibit active Ras in fresh protein lysates from MIA PaCa-2 xenografts. Compared to controls, P-FTS 35, 50 and 100 mg/kg reduced RAS activation in xenografts by 62% and 70%, respectively (p<0.01, for both; FIG. 8A)."}, "[9]": {"test_system": "MIA PaCa-2 cells", "assay": "Pancreatic cancer xenograft model in nude mice", "type": "in vivo", "conditions": "for reduction of tumor volume growth: day 25", "procedure": "The in vivo chemotherapeutic potential of P-FTS 35 was assessed using a pancreatic cancer xenograft model. MIA PaCa-2 cells were injected subcutaneously into the flank areas of nude mice. When palpable tumors were observed, the mice received P-FTS 35, 50 or 100 mg/kg/d by oral gavage in corn oil or just corn oil (control) for 25 days. On day 25 of treatment, P-FTS 35, 50 mg/kg/d, and P-FTS 35, 100 mg/kg/d reduced the tumor volume growth by 62% and 65%, respectively (p<0.05; FIG. 5)."}, "[10]": {"test_system": "Ras", "assay": "Ras-GTP pull down assay in Panc-1 cells", "type": "cell-based, human", "conditions": "24 h", "excerpt": "(§3) In the following experiments it was examined whether the pancreatic cancer growth inhibitory effect of P-FTS 35 is associated with down regulation of Ras signaling. For this purpose, we used the Ras-GTP pull down assay."}, "[11]": {"test_system": "p-c-RAF", "assay": "Immunostaining of xenograft tissue sections", "type": "in vivo, nude mice", "conditions": "compared to control"}, "[12]": {"test_system": "Ras", "assay": "Ras-GTP pull down assay in lysates from MIA PaCa-2 xenografts", "type": "in vivo, nude mice", "conditions": "compared to controls", "procedure": "as §2"}, "[13]": {"test_system": "p-ERK1/2", "assay": "Immunostaining of xenograft tissue sections", "type": "in vivo, nude mice", "conditions": "compared to control", "procedure": "C: Growth of xenograft tumors treated without or with P-FTS 35 and stained for p-ERK expression. The percentage of p-ERK positive cells/field were determined and expressed as the mean±SEM (*P<0.03).\nas §2"}, "[14]": {"test_system": "RAF/MEK/ERK and PI3K/AKT pathways", "assay": "Immunoblots of Ras downstream effectors in Panc-1 cells", "type": "cell-based, human", "excerpt": "C: Immunoblots of p-c-RAF, c-RAF, p-MEK, MEK, p-AKT and AKT in whole cell protein extracts from Panc-1 cells treated with P-FTS 35 as indicated. Loading control: β-actin.\nas §3"}, "[15]": {"conditions": "cited from earlier work"}, "[16]": {"target": "CYP 2C19 (Homo sapiens, UniProt P33261)", "sequence (P33261 whole entry, canonical isoform)": "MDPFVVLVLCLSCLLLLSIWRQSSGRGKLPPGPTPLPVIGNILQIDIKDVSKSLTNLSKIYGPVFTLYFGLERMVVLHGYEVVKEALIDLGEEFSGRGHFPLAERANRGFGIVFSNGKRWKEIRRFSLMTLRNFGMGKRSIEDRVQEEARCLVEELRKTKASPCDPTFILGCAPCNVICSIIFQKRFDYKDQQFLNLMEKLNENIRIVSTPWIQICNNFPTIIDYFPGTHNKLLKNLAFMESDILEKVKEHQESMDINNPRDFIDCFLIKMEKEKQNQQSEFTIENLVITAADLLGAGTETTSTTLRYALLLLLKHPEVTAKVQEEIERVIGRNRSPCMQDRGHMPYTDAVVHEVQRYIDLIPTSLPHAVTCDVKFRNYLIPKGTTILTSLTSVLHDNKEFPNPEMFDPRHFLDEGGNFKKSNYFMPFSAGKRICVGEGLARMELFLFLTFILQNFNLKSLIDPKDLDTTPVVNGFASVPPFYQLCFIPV", "assay": "Metabolism by recombinant human CYP isoforms", "type": "in vitro ADME", "conditions": "recombinant human CYP 25 pmol/ml, 37° C., NADPH-regenerating solution"}, "[17]": {"assay": "Tolerated dose in mice (PA, ASA)", "type": "in vivo", "procedure": "The ability of phospho-aspirin (PA) to prevent breast cancer (BC) was evaluated using MDA-MB-231 human BC cells xenografted into one of the mammary glands of nude mice (orthotopic xenografts). PA was administered orally, 120 mg/kg/d 1 wk prior to inoculating the cells (the standard prevention protocol); acetylsalicylic acid (ASA) was given at an equimolar dose of 40 mg/kg/d. This was the highest dose of ASA that these mice could tolerate on a long-term basis. The dose of PA represents <10% of its maximum tolerated dose (MTD≧1,600 mg/kg), but was chosen so that a comparison between PA and ASA was possible."}, "[18]": {"target": "CYP 3A4 (Homo sapiens, UniProt P08684)", "sequence (P08684 whole entry, canonical isoform)": "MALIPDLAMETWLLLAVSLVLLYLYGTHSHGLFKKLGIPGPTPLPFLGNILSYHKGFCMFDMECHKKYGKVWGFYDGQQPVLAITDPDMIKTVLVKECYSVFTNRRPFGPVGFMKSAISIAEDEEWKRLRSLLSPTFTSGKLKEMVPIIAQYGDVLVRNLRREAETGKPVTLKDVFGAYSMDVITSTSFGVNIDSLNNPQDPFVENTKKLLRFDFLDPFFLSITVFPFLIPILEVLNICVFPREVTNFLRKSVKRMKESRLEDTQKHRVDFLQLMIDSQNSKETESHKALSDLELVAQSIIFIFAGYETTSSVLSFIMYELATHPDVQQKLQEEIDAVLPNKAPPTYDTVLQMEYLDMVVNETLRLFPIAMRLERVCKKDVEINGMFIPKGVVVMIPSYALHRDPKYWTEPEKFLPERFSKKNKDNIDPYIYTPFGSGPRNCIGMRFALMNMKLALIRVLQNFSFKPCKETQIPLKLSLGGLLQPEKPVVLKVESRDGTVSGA", "assay": "Metabolism by recombinant human CYP isoforms", "type": "in vitro ADME", "conditions": "recombinant human CYP 25 pmol/ml, 37° C., NADPH-regenerating solution"}, "[19]": {"assay": "Levels of PA and metabolites in blood and xenografts by HPLC", "type": "in vivo, mice", "conditions": "for metabolites detected in plasma and xenograft tumors: mice treated with PA or ASA", "procedure": "The levels of PA and some of its metabolites in blood and xenografts from these mice were determined by HPLC according to the methods described by G. Xie et al. (Br J Pharmacol. 2012; 167(1):222-32)."}, "[20]": {"target": "CYP 2C9 (Homo sapiens, UniProt P11712)", "sequence (P11712 whole entry, canonical isoform)": "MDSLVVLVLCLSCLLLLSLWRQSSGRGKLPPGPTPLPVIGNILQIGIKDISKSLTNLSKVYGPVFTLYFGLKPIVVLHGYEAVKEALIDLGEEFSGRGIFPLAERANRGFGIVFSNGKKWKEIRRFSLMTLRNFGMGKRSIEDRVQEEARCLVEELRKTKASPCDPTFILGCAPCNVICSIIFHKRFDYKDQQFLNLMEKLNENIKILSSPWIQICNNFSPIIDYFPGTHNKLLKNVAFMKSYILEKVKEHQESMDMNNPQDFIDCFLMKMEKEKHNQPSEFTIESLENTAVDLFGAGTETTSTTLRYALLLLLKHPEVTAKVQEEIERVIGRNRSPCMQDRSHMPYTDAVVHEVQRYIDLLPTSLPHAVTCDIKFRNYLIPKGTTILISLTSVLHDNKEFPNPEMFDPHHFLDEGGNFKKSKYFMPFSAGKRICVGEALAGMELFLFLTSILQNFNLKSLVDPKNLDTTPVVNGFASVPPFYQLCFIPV", "assay": "Metabolism by recombinant human CYP isoforms", "type": "in vitro ADME", "conditions": "recombinant human CYP 25 pmol/ml, 37° C., NADPH-regenerating solution"}, "[21]": {"target": "CYP 2D6 (Homo sapiens, UniProt P10635)", "sequence (P10635 whole entry, canonical isoform)": "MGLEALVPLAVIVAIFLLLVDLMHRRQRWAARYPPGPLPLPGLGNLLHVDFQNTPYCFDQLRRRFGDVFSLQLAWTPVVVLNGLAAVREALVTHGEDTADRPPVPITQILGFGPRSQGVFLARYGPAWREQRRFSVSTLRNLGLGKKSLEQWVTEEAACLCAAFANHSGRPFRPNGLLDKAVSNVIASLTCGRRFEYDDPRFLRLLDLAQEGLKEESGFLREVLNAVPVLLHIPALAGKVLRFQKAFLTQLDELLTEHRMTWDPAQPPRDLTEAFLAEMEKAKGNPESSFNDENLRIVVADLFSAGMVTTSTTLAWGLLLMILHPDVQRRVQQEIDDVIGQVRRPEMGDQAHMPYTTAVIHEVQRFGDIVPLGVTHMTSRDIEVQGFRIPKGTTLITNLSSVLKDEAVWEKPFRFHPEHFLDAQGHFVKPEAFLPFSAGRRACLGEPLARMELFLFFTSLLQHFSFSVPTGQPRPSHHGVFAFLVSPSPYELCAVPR", "assay": "Metabolism by recombinant human CYP isoforms", "type": "in vitro ADME", "conditions": "recombinant human CYP 25 pmol/ml, 37° C., NADPH-regenerating solution"}, "[22]": {"target": "CYP 1A2 (Homo sapiens, UniProt P05177)", "sequence (P05177 whole entry, canonical isoform)": "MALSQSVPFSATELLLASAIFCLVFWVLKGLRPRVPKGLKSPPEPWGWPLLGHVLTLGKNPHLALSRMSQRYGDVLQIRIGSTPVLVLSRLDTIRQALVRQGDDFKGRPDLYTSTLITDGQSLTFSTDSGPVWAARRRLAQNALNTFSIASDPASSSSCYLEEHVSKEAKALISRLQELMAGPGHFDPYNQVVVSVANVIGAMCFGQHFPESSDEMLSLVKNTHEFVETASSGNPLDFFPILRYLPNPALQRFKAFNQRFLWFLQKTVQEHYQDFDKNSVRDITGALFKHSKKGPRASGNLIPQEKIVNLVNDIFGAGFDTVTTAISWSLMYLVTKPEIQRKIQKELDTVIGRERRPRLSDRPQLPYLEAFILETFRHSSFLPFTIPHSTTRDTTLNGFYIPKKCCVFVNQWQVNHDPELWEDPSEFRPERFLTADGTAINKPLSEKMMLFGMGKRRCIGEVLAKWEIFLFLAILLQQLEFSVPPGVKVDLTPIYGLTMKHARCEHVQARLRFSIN", "assay": "Metabolism by recombinant human CYP isoforms", "type": "in vitro ADME", "conditions": "recombinant human CYP 25 pmol/ml, 37° C., NADPH-regenerating solution"}, "[23]": {"test_system": "liver microsomes", "assay": "Metabolism in liver microsomes (HPLC)"}, "[24]": {"test_system": "MDA-MB-231 human BC cells", "assay": "Prevention of orthotopic MDA-MB-231 breast cancer xenografts in nude mice", "type": "in vivo", "conditions": "PA 120 mg/kg/d orally, from 1 wk prior to inoculating the cells"}}, "data": [{"molecule": "O=C(O)c1ccccc1O", "note": "[SA, salicylic acid]", "values": [{"measurement": "oxidation by liver microsomes", "setting": "[1]", "result": "not appreciably oxidized"}]}, {"molecule": "CCOP(=O)(OCC)OCCCCOC(=O)c1ccccc1SC/C=C(\\C)CC/C=C(\\C)CCC=C(C)C", "values": [{"measurement": "weight loss or other signs of toxicity", "setting": "[2]; 75, 150, 250 and 350 mg/kg oral gavage once a day for 3 weeks, female BALB/c mice", "result": "no weight loss or other signs of toxicity"}, {"measurement": "MTD at 3 weeks", "setting": "[2]; female, BALB/c, mouse, in vivo, 3-wk period of observation, oral gavage, read-out: (sub-chronic) maximum tolerated dose", "result": "≥ 350", "unit": "mg/kg/day"}, {"measurement": "cell growth, % control", "setting": "[3]", "result": "decreases pancreatic cancer cell growth in a concentration-dependent manner"}, {"measurement": "cell growth, % control", "setting": "[4]", "result": "decreases pancreatic cancer cell growth in a concentration-dependent manner"}, {"measurement": "cell growth, % control", "setting": "[5]", "result": "decreases pancreatic cancer cell growth in a concentration-dependent manner"}, {"measurement": "cell growth, % control", "setting": "[6]", "result": "decreases pancreatic cancer cell growth in a concentration-dependent manner"}, {"measurement": "cell growth, % control", "setting": "[7]", "result": "decreases pancreatic cancer cell growth in a concentration-dependent manner"}, {"measurement": "p-ERK and p-AKT in xenografts by immunoblotting", "setting": "[8]", "result": "inhibition of p-ERK and p-AKT"}, {"measurement": "reduction of tumor volume growth", "setting": "[9]; 50 mg/kg/d oral gavage in corn oil", "result": 62, "unit": "%"}, {"measurement": "reduction of tumor volume growth", "setting": "[9]; 100 mg/kg/d oral gavage in corn oil", "result": 65, "unit": "%"}, {"measurement": "tolerability in the efficacy study", "setting": "[9]; 50 or 100 mg/kg/d, 25 days", "result": "well tolerated"}, {"measurement": "weight loss or other signs of toxicity in the efficacy study", "setting": "[9]; 50 or 100 mg/kg/d, 25 days", "result": "no weight loss or other signs of toxicity"}, {"measurement": "decrease of Ras-GTP compared with the parent compound (FTS)", "setting": "[10]; 50 μM", "result": "more pronounced"}, {"measurement": "inhibition of active Ras (Ras-GTP)", "setting": "[10]", "result": "significantly inhibited active Ras (Ras-GTP) in a concentration-dependent manner"}, {"measurement": "reduction of expression of p-c-RAF", "setting": "[11]", "result": 73, "unit": "%"}, {"measurement": "reduction of RAS activation in xenografts", "setting": "[12]; 50 mg/kg", "result": 62, "unit": "%"}, {"measurement": "reduction of RAS activation in xenografts", "setting": "[12]; 100 mg/kg", "result": 70, "unit": "%"}, {"measurement": "reduction of expression of p-ERK1/2", "setting": "[13]", "result": 71, "unit": "%"}, {"measurement": "inhibition of the RAF/MEK/ERK and PI3K/AKT pathways", "setting": "[14]", "result": "significant time-dependent inhibition"}]}, {"molecule": "CC1=C(CC(=O)O)c2cc(F)ccc2/C1=C\\c1ccc([S+](C)[O-])cc1", "note": "(stereo not drawn) [sulindac]", "values": [{"measurement": "gastrointestinal side effects, share of patients", "setting": "[15]", "result": "up to 20%"}, {"measurement": "skin rash and pruritus, share of patients", "setting": "[15]", "result": 5, "unit": "%"}]}, {"molecule": "CC(=O)Oc1ccccc1C(=O)O", "note": "[ASA, acetylsalicylic acid]", "values": [{"measurement": "oxidation (conversion of PSA to 5-OH-PSA) by CYP 2C19", "setting": "[16]", "result": "cannot be oxidized"}, {"measurement": "highest dose that these mice could tolerate on a long-term basis", "setting": "[17]; nude mice", "result": 40, "unit": "mg/kg/day"}, {"measurement": "oxidation by CYP 3A4", "setting": "[18]", "result": "cannot be oxidized"}, {"measurement": "metabolites detected in plasma and xenograft tumors", "setting": "[19]", "result": "Only salicylic acid (SA) was detected"}, {"measurement": "oxidation by CYP 2C9", "setting": "[20]", "result": "cannot be oxidized"}, {"measurement": "oxidation (conversion of PSA to 5-OH-PSA) by CYP 2D6", "setting": "[21]", "result": "cannot be oxidized"}, {"measurement": "oxidation by liver microsomes", "setting": "[1]", "result": "not appreciably oxidized"}, {"measurement": "oxidation by CYP 1A2", "setting": "[22]", "result": "cannot be oxidized"}]}, {"molecule": "CCOP(=O)(OCC)OCCCCOC(=O)c1ccccc1OC(C)=O", "note": "[PA, phospho-aspirin]", "values": [{"measurement": "maximum tolerated dose (MTD)", "setting": "[17]; mice", "result": "≥ 1,600 mg/kg"}, {"measurement": "major metabolites detected in liver microsomes", "setting": "[23]; HPLC", "result": "phospho-salicylic acid [PSA], 3-OH-PSA and 5-OH-PSA"}, {"measurement": "deacetylation in liver microsomes", "setting": "[23]; PA-treated liver microsomes", "result": "readily deacetylated"}, {"measurement": "average tumor volume reduced compared to controls", "setting": "[24]", "result": 62, "unit": "%"}, {"measurement": "treated mice that had no tumors", "setting": "[24]; of the 20 treated mice", "result": 20, "unit": "%"}, {"measurement": "treated mice that had tumors <100 mm^3", "setting": "[24]; of the 20 treated mice", "result": 30, "unit": "%"}, {"measurement": "intact PA in plasma or xenografts", "setting": "[19]; mice treated with PA 120 mg/kg/d, HPLC", "result": "No intact PA in either plasma or xenografts was detected"}, {"measurement": "metabolites detected in plasma and xenograft tumors", "setting": "[19]", "result": "Only salicylic acid (SA) was detected"}, {"measurement": "difference in SA levels between PA and ASA groups", "setting": "[19]; plasma and xenografts", "result": "no difference in SA levels"}]}]}
